Test results as given in article PMC5559473, “Screening of TB Actives for Activity against Nontuberculous Mycobacteria Delivers High Hit Rates” (Frontiers in Microbiology, 2017).
Values after ≈ are worked out from the molar mass of the structure shown. Values joined by “and” are separate entries in the source; they are usually repeats but may differ in a detail not shown here. Equal values may be shown once. Read-outs that look alike come from different tables or passages of the source.

Legend:
M. tuberculosis H37Rv = assay: Dose-response growth inhibition (broth microdilution); format: cell-based; conditions: Mycobacterium tuberculosis, 168 h
M. abscessus Bamboo [1] = assay: as above; format: cell-based, Mycobacterium abscessus; conditions: Mycobacteroides abscessus
M. avium 11 [2] = assay: as above; format: cell-based, Mycobacterium avium
M. abscessus Bamboo [3] = assay: Bactericidal assay (CFU, fold kill); format: cell-based, Mycobacterium abscessus; conditions: for Fold kill at MIC90: 10^7 CFU/mL exposed to MIC90 for 3 days, CFU vs starting inoculum
M. avium 11 [4] = assay: Bactericidal assay (CFU, fold kill); format: cell-based, Mycobacterium avium; conditions: for Fold kill at MIC90: 10^7 CFU/mL exposed to MIC90 for 4 days, CFU vs starting inoculum
M. tuberculosis = test system: M. tuberculosis; set-up: method as in http://www.pathogenbox.org/; conditions: as reported by MMV, ref http://www.pathogenbox.org/; cited from earlier work
[5] = rat, cited from earlier work; for Cmax: BLQ = < 1 ng/mL
M. avium 11 [6] = assay: Single point growth inhibition screening assay; format: cell-based, Mycobacterium avium; conditions: M. avium 11, 20 μM, 4 days
M. abscessus = conditions: cited from earlier work
M. avium = conditions: cited from earlier work
[7] = M. tuberculosis H37Rv, 7 days, concentration that inhibits 50% of growth, read-out: MIC50
[8] = M. tuberculosis H37Rv, 7 days, concentration that inhibits 90% of growth, read-out: MIC90
[9] = 72 h, M. abscessus Bamboo, 3 days, read-out: MIC50
[10] = 72 h, M. abscessus Bamboo, 3 days, read-out: MIC90
[11] = Mycobacterium avium, 96 h, M. avium 11, 4 days, read-out: MIC50
[12] = Mycobacterium avium, 96 h, M. avium 11, 4 days, read-out: MIC90
[13] = IV 1 mg/kg, mean n = 2, ref http://www.pathogenbox.org/
[14] = PO 5 mg/kg, mean n = 2, ref http://www.pathogenbox.org/
[15] = ref Brown-Elliott et al., 2003, Cavusoglu et al., 2007, Aziz et al., 2017

Compound	MIC50 (M. tuberculosis H37Rv; [7]) [µM]	MIC90 (M. tuberculosis H37Rv; [8]) [µM]	MIC50 (M. abscessus Bamboo [1]; [9]) [µM]	MIC90 (M. abscessus Bamboo [1]; [10]) [µM]	MIC50 (M. avium 11 [2]; [11]) [µM]	MIC90 (M. avium 11 [2]; [12]) [µM]	Fold kill at MIC90 (M. abscessus Bamboo [3])	Reported MIC (M. tuberculosis) [µM]	AUCinf ([5]; in vivo, iv, 1 mg/kg) [ng·h/mL]	AUClast ([5]; in vivo, iv, 1 mg/kg) [ng·h/mL]	C0 ([5]; in vivo, iv, 1 mg/kg) [ng/mL]	Cl ([5]; in vivo, iv, 1 mg/kg) [mL/min/kg]	Fold kill at MIC90 (M. avium 11 [4])	further results
COc1ccc2nccc(NC(=O)C3CCN(CCc4ccc(Cl)cc4)CC3)c2n1 [MMV688844]	0.2 (≈ 0.085 µg/mL)	2.8 (≈ 1.19 µg/mL)	4.5 (≈ 1.91 µg/mL)	11 (≈ 4.67 µg/mL)	2 (≈ 0.85 µg/mL)	> 50	100 fold	0.4	167	164	116	102	–	MIC90 (M. avium 11 [2]; Mycobacterium avium, 11, read-out: Concentration at which 80% growth inhibition was achieved (printed in MIC90 column)): 6 µM (≈ 2.55 µg/mL); Fold kill (Fold kill at MIC90) (M. avium 11 [4]; at 6 μM (80% growth inhibition), MIC90 not reached): NK^# (NK, “no kill,” i.e., CFU reduction < 10-fold at MIC90)
CC(=O)NCC1CN(c2ccc(-c3ccc(CO)cc3)c(F)c2)C(=O)O1 (stereo not drawn) [MMV688508]	< 0.2	0.3 (≈ 0.108 µg/mL)	2.2 (≈ 0.788 µg/mL)	12 (≈ 4.3 µg/mL)	0.6 (≈ 0.215 µg/mL)	8 (≈ 2.87 µg/mL)	NK (NK, “no kill,” i.e., CFU reduction < 10-fold at MIC90)	0.4	156	156	1310	280	NK (NK, “no kill,” i.e., CFU reduction < 10-fold at MIC90)	AUClast ([5]; in vivo, po, 5 mg/kg): 1.45 ng·h/mL; tmax ([5]; in vivo, po, 5 mg/kg): 0.25 h; %F ([5]; in vivo): <1%
CN1CCN(CCCOc2ncc(Nc3ncc(-c4ccc(C(F)(F)F)c(F)c4)nc3C(N)=O)cn2)CC1 [MMV687812]	< 0.2	2.2 (≈ 1.18 µg/mL)	6 (≈ 3.21 µg/mL)	> 50	25 (≈ 13.4 µg/mL)	> 50	–	1.2	801	381	265	20.8	NK (NK, “no kill,” i.e., CFU reduction < 10-fold at MIC90)	MIC90 (M. abscessus Bamboo [1]; read-out: Concentration at which 80% growth inhibition was achieved (printed in MIC90 column)): 12 µM (≈ 6.41 µg/mL); Fold kill (Fold kill at MIC90) (M. abscessus Bamboo [3]; at 12 μM (80% growth inhibition), MIC90 not reached): NK^∧ (NK, “no kill,” i.e., CFU reduction < 10-fold at MIC90); AUCinf ([5]; in vivo, po, 5 mg/kg): 2450 ng·h/mL; AUClast ([5]; in vivo, po, 5 mg/kg): 962 ng·h/mL; tmax ([5]; in vivo, po, 5 mg/kg): 7 h; %F ([5]; in vivo): 50%
COc1ccc(OC)c(NCc2ccc3nc(N)nc(N)c3c2Cl)c1 [MMV675968]	< 0.2	4 (≈ 1.44 µg/mL)	10.5 (≈ 3.78 µg/mL)	35 (≈ 12.6 µg/mL)	0.2 (≈ 0.072 µg/mL)	3 (≈ 1.08 µg/mL)	NK (NK, “no kill,” i.e., CFU reduction < 10-fold at MIC90)	–	900	897	1080	18.7	NK (NK, “no kill,” i.e., CFU reduction < 10-fold at MIC90)	AUCinf ([5]; in vivo, po, 5 mg/kg): 532 ng·h/mL; AUClast ([5]; in vivo, po, 5 mg/kg): 504 ng·h/mL; tmax ([5]; in vivo, po, 5 mg/kg): 1 h; %F ([5]; in vivo): 11%
O=C(N[C@H](Cc1ccccc1)C(=O)Nc1ccccc1N1CCOCC1)c1cccs1 [MMV688845]	< 0.2	1.7 (≈ 0.74 µg/mL)	1.5 (≈ 0.653 µg/mL)	7 (≈ 3.05 µg/mL)	0.6 (≈ 0.261 µg/mL)	3 (≈ 1.31 µg/mL)	10 fold	1.2	174	171	716	96.3	NK (NK, “no kill,” i.e., CFU reduction < 10-fold at MIC90)	AUClast ([5]; in vivo, po, 5 mg/kg): 3.95 ng·h/mL; tmax ([5]; in vivo, po, 5 mg/kg): 0.375 h; %F ([5]; in vivo): <1%
[H]/N=C(/N)N[C@H]1[C@H](O)[C@@H](O)[C@H](O[C@@H]2O[C@@H](C)[C@](O)(C=O)[C@H]2O[C@@H]2O[C@@H](CO)[C@H](O)[C@@H](O)[C@@H]2NC)[C@@H](N/C(N)=N\[H])[C@@H]1O [streptomycin]	–	–	–	–	–	–	–	–	–	–	–	–	–	Activity in primary screen (hit = equal or more than 80% growth inhibition) (M. avium 11 [6]): M. avium-specific hits
Cc1ccccc1CN1CCC(O)(c2ccc(Cl)c(C(F)(F)F)c2)CC1 [MMV688846]	–	–	–	–	–	–	10 fold	0.4	–	–	–	–	–	MIC50 (M. tuberculosis H37Rv; H37RV): 0.2 µM (≈ 0.0768 µg/mL); MIC90 (M. tuberculosis H37Rv; H37RV): 0.6 µM (≈ 0.23 µg/mL); MIC50 (M. abscessus Bamboo [1]; 72 h): 0.7 µM (≈ 0.269 µg/mL); MIC90 (M. abscessus Bamboo [1]; 72 h): 1.5 µM (≈ 0.576 µg/mL); MIC50 (M. avium 11 [2]; Mycobacterium avium, 11, 96 h): 20 µM (≈ 7.68 µg/mL); IC90 (M. avium 11 [2]; Mycobacterium avium, 11, 96 h, read-out: MIC90): > 50 µM; AUCinf [5, 13]: 464 ng·h/mL; AUClast [5, 13]: 423 ng·h/mL; C0 [5, 13]: 563 ng/mL; Cl [5, 13]: 36.8 mL/min/kg; Vss [5, 13]: 14.4 L/kg; t1/2 [5, 13]: 9.78 h; %F ([5]; PO 5 mg/kg vs IV 1 mg/kg, ref http://www.pathogenbox.org/): <1%; Cmax [5, 14]: 3.19 ng/mL; AUCinf [5, 14]: 27.5 ng·h/mL; AUClast [5, 14]: 18.1 ng·h/mL; t1/2 [5, 14]: 4.6 h; tmax [5, 14]: 1.5 h
C[C@@H](O)[C@H]1C(=O)N2C(C(=O)O)=C(SCCN=CN)C[C@H]12 [imipenem]	–	–	–	–	–	–	–	–	–	–	–	–	–	MIC (M. abscessus; ref Lavollay et al., 2014): around 27 μM and ~8 mg/L
CC(C)=CCC/C(C)=C/CNCCNC1C2CC3CC(C2)CC1C3 (stereo not drawn) [SQ109]	–	–	–	–	–	–	–	–	–	–	–	–	–	MIC (M. abscessus; ref Sacksteder et al., 2012): 4–16 mg/L and 12–48 μM; MIC (M. avium; ref Sacksteder et al., 2012): 4–16 mg/L and 12–48 μM
CC(=O)NC[C@H]1CN(c2ccc(-c3ccc(CNCc4cnn[nH]4)cc3)c(F)c2)C(=O)O1 [MMV688327, radezolid, reference compound]	0.5 (≈ 0.219 µg/mL)	2 (≈ 0.877 µg/mL)	3.8 (≈ 1.67 µg/mL)	13 (≈ 5.7 µg/mL)	4 (≈ 1.75 µg/mL)	35 (≈ 15.3 µg/mL)	NK (NK, “no kill,” i.e., CFU reduction < 10-fold at MIC90)	0.3	–	–	–	–	NK (NK, “no kill,” i.e., CFU reduction < 10-fold at MIC90)	–
CCCCOC(=O)Nc1cc2nc(C3CCCCC3)[nH]c2cc1N1CCCC1 [MMV687730]	< 0.2	< 0.2	4 (≈ 1.54 µg/mL)	8.5 (≈ 3.27 µg/mL)	5 (≈ 1.92 µg/mL)	22 (≈ 8.46 µg/mL)	10 fold	0.05	–	–	–	–	NK (NK, “no kill,” i.e., CFU reduction < 10-fold at MIC90)	AUCinf [5, 13]: 125 ng·h/mL; AUClast [5, 13]: 108 ng·h/mL; C0 [5, 13]: 444 ng/mL; Cl [5, 13]: 166 mL/min/kg; Vss [5, 13]: 15.9 L/kg; t1/2 [5, 13]: 3.34 h; Cmax [5, 14]: NC (BLQ at all time points)
Cc1cc(C)c2cc(C(=O)NC3CCCCCCC3)[nH]c2c1 [MMV687146]	< 0.2	< 0.2	0.8 (≈ 0.239 µg/mL)	2 (≈ 0.597 µg/mL)	3 (≈ 0.895 µg/mL)	9 (≈ 2.69 µg/mL)	100 fold	<0.024	935	798	2270	18.2	NK (NK, “no kill,” i.e., CFU reduction < 10-fold at MIC90)	AUCinf ([5]; in vivo, po, 5 mg/kg): 483 ng·h/mL; AUClast ([5]; in vivo, po, 5 mg/kg): 456 ng·h/mL; tmax ([5]; in vivo, po, 5 mg/kg): 0.75 h; %F ([5]; in vivo): 11%
CC(=O)NC[C@H]1CN(c2ccc(N3CCSCC3)c(F)c2)C(=O)O1 [MMV688756, sutezolid, reference compound]	< 0.2	1.2 (≈ 0.424 µg/mL)	4.2 (≈ 1.48 µg/mL)	25 (≈ 8.84 µg/mL)	0.4 (≈ 0.141 µg/mL)	4 (≈ 1.41 µg/mL)	NK (NK, “no kill,” i.e., CFU reduction < 10-fold at MIC90)	1.2	–	–	–	–	NK (NK, “no kill,” i.e., CFU reduction < 10-fold at MIC90)	–
OC(c1cc(C(F)(F)F)nc2c(C(F)(F)F)cccc12)C1CCCCN1 (stereo not drawn) [mefloquine]	–	–	–	–	–	–	–	–	–	–	–	–	–	Activity in primary screen (hit = equal or more than 80% growth inhibition) (M. avium 11 [6]): M. avium-specific hits
CC(C)/N=c1\cc2n(-c3ccc(Cl)cc3)c3ccccc3nc-2cc1Nc1ccc(Cl)cc1 [clofazimine]	–	–	–	–	–	–	–	–	–	–	–	–	–	Activity in primary screen (hit = equal or more than 80% growth inhibition) (M. avium 11 [6]): M. avium-specific hits
CC(=O)NC[C@H]1CN(c2ccc(N3CCOCC3)c(F)c2)C(=O)O1 [linezolid]	–	–	–	–	–	–	–	–	–	–	–	–	–	MIC90 (M. abscessus; [15]): 36 µM (≈ 12.1 µg/mL); MIC90 (M. avium; [15]): 22 µM (≈ 7.42 µg/mL)
CO[C@H]1/C=C/O[C@@]2(C)Oc3c(C)c(O)c4c(O)c(c(/C=N/N5CCN(C)CC5)c(O)c4c3C2=O)NC(=O)/C(C)=C\C=C\[C@H](C)[C@H](O)[C@@H](C)[C@@H](O)[C@@H](C)[C@H](OC(C)=O)[C@@H]1C [rifampicin]	–	–	–	–	–	–	–	–	–	–	–	–	–	Activity in primary screen (hit = equal or more than 80% growth inhibition) (M. avium 11 [6]): M. avium-specific hits; MIC (M. abscessus; ref Aziz et al., 2017): ≥ 37 µM
C[C@]1(COc2ccc(N3CCC(Oc4ccc(OC(F)(F)F)cc4)CC3)cc2)Cn2cc([N+](=O)[O-])nc2O1 [delamanid]	–	–	–	–	–	–	–	–	–	–	–	–	–	Activity in primary screen (hit = equal or more than 80% growth inhibition) (M. avium 11 [6]): M. avium-specific hits
